Patent publication US9896456B2, “Pharmaceutical compound having inhibitory activity against cholesterol acyltransferase isozyme 2 (ACAT2)” (School Juridical Person Kitasato Institute, priority 2014, dated 2018)

Molecular target: T1, ACAT2 (Mus musculus, UniProt O88908)
T1 construct: The resulting sediment was collected as a murine hepatic microsome fraction; from tissue; host or cells: mouse liver (hepatic microsome fraction)
T1 sequence (O88908 1-525): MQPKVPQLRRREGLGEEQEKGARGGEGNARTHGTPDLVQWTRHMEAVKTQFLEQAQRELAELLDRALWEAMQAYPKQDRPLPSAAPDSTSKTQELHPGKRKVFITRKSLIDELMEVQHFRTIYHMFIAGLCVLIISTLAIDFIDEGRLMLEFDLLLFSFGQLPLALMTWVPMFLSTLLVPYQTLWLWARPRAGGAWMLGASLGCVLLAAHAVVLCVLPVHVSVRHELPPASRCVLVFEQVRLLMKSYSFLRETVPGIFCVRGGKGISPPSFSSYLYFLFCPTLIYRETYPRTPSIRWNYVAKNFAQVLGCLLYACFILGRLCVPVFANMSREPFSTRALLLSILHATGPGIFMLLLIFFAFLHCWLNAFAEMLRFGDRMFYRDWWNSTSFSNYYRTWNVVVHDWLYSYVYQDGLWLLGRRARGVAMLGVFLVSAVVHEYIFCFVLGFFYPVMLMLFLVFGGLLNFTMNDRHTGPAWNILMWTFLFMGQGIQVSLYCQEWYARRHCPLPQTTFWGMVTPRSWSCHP
Assay: Test of inhibitory activity against ACAT2 (murine hepatic microsome, [1-14C]oleoyl coenzyme A)
Type: biochemical
Conditions: for IC50: murine hepatic microsome fraction as enzyme source, 37° C., 5 minutes; for degree of inhibitory activity against ACAT2 (in words, compared with pyripyropene A): summary of Table 1
Protocol: The compounds produced in accordance with the procedure described above were tested concerning the inhibitory activity against ACAT2 in the manner described below.
The ACAT2 enzyme protein was extracted from the membrane fraction derived from the murine hepatic microsome. Mouse livers were homogenized in buffer A (50 mM Tris-HCl buffer (pH 7.8), 1 mM ethylenediaminetetraacetic acid, and 1 mM phenylmethanesulfonyl fluoride) using a Potter-type homogenizer (Tokyo-RIKO). The homogenate was centrifuged at 12,000×g, and the supernatant was subjected to ultracentrifugation at […]. The resulting sediment was collected as a murine hepatic microsome fraction, and this fraction was adjusted so as to have a protein concentration of 5 mg/ml using buffer A. Thus, an enzyme source of the ACAT2 enzyme protein was obtained.
ACAT2 activity was measured in the manner described below. […] The reaction solution was incubated at 37° C. for 5 minutes. A reaction solution prepared with the addition of 10 μl of methanol in place of the sample was used as a control reaction solution.
After the incubation, the reaction was terminated with the addition of 1.2 ml of a chloroform/methanol (1:2) solution to the reaction solution. […] The resulting chloroform layer was evaporated to dryness and spotted on a thin layer chromatography (TLC) plate (silica gel plate, 0.5 mm thickness, Merck). Separation was carried out with the use of a solvent comprising hexane/diethyl ether/acetic acid (70:30:1, v/v). Subsequently, [^14C] cholesteryl oleate separated on the TLC plate was quantified using FLA 7000 (Fuji Film). […] In quantification of the [^14C] cholesteryl oleate, the radioactivity of a TLC plate onto which no substance had been spotted was designated as the background level.
The symbols used in the table are as defined below.

IC50 | SMILES | degree of inhibitory activity against ACAT2 (in words, compared with pyripyropene A)
10 to 100 µM | CC(=O)O[C@H]1C[C@@H](C(C)C)C[C@H]2C(O)c3c(cc(-c4ccccc4)oc3=O)O[C@]12C (stereo in doubt) [PT003, (5aS,6S,8S,9aS,10R)-10-hydroxy-8-isopropyl-5a-methyl-1-oxo-3-phenyl-1,5a,6,7,8,9,9a,10-octahydropyrano[4,3-b]chromen-6-yl acetate] | –
10 to 100 µM | CC(=O)O[C@H]1C[C@@H](C(C)C)C[C@H]2[C@@H](O)c3c(cc(-c4cccnc4)oc3=O)O[C@]12C [PT001, (5aS,6S,8S,9aS,10R)-10-hydroxy-8-isopropyl-5a-methyl-1-oxo-3-(pyridin-3-yl)-1,5a,6,7,8,9,9a,10-octahydropyrano[4,3-b]chromen-6-yl acetate] | –
10 to 100 µM | CC(=O)O[C@H]1C[C@@H](C(C)C)C[C@H]2[C@H](O)c3c(cc(-c4cccnc4)oc3=O)O[C@]12C [PT002, (5aS,6S,8S,9aS,10S)-10-hydroxy-8-isopropyl-5a-methyl-1-oxo-3-(pyridin-3-yl)-1,5a,6,7,8,9,9a,10-octahydropyrano[4,3-b]chromen-6-yl acetate] | –
0.5 to 10 µM | CC(=O)O[C@H]1C[C@@H](C(C)C)C[C@H]2[C@H](O)c3c(cc(-c4ccccc4)oc3=O)O[C@]12C [PT004, (5aS,6S,8S,9aS,10S)-0-hydroxy-8-isopropyl-5a-methyl-1-oxo-3-phenyl-1,5a,6,7,8,9,9a,10-octahydropyrano[4,3-b]chromen-6-yl acetate] | –
< 0.5 µM | CC(C)[C@@H]1C[C@H](OC(=O)c2ccc(C#N)cc2)[C@@]2(C)Oc3cc(-c4cccnc4)oc(=O)c3[C@H](O)[C@@H]2C1 [PT005, (5aS,6S,8S,9aS,10R)-10-hydroxy-8-isopropyl-5a-methyl-1-oxo-3-(pyridin-3-yl)-1,5a,6,7,8,9,9a,10-octahydropyrano[4,3-b]chromen-6-yl 4-cyanobenzoate] | substantially equivalent to that of pyripyropene A
< 0.5 µM | CC(C)[C@@H]1C[C@H](OC(=O)c2ccc(C#N)cc2)[C@@]2(C)Oc3cc(-c4cccnc4)oc(=O)c3[C@@H](O)[C@@H]2C1 [PT006, (5aS,6S,8S,9aS,10S)-10-hydroxy-8-isopropyl-5a-methyl-1-oxo-3-(pyridin-3-yl)-1,5a,6,7,8,9,9a,10-octahydropyrano[4,3-b]chromen-6-yl 4-cyanobenzoate] | substantially equivalent to that of pyripyropene A
0.5 to 10 µM | CC(C)[C@@H]1C[C@H](OC(=O)c2ccc(C#N)cc2)[C@@]2(C)Oc3cc(-c4ccccc4)oc(=O)c3[C@H](O)[C@@H]2C1 [PT007, (5aS,6S,8S,9aS,10R)-10-hydroxy-8-isopropyl-5a-methyl-1-oxo-3-phenyl-1,5a,6,7,8,9,9a,10-octahydropyrano[4,3-b]chromen-6-yl 4-cyanobenzoate] | –
0.5 to 10 µM | CC(=O)O[C@H]1C[C@@H](C(C)C)C(C)(C)[C@H]2[C@@H](O)c3c(cc(-c4cccnc4)oc3=O)O[C@]12C [PT008, (5aS,6S,8S,9aS,10R)-10-hydroxy-8-isopropyl-5a,9,9-trimethyl-1-oxo-3-(pyridin-3-yl)-1,5a,6,7,8,9,9a,10-octahydropyrano[4,3-b]chromen-6-yl acetate] | –
< 0.5 µM | CC(C)[C@@H]1C[C@H](OC(=O)c2ccc(C#N)cc2)[C@@]2(C)Oc3cc(-c4cccnc4)oc(=O)c3[C@H](O)[C@@H]2C1(C)C [PT009, (5aS,6S,8S,9aS,10R)-10-hydroxy-8-isopropyl-5a,9,9-trimethyl-1-oxo-3-(pyridin-3-yl)-1,5a,6,7,8,9,9a,10-octahydropyrano[4,3-b]chromen-6-yl 4-cyanobenzoate] | substantially equivalent to that of pyripyropene A
< 0.5 µM | CC(=O)OCC(COC(C)=O)[C@@H]1C[C@H](OC(=O)c2ccc(C#N)cc2)[C@@]2(C)Oc3cc(-c4cccnc4)oc(=O)c3[C@H](O)[C@@H]2C1(C)C [PT022, 2-((5aS,6S,8S,9aS,10R)-6-((4-cyanobenzoyl)oxy)-10-hydroxy-5a,9,9-trimethyl-1-oxo-3-(pyridin-3-yl)-1,5a,6,7,8,9,9a,10-octahydropyrano[4,3-b]chromen-8-yl)propane-1,3-diyl diacetate] | –

SMILES | IC50 | degree of inhibitory activity against ACAT2 (in words, compared with pyripyropene A)
CC(=O)OCC(COC(C)=O)[C@@H]1C[C@H](OC(C)=O)[C@@]2(C)Oc3cc(-c4cccnc4)oc(=O)c3[C@H](O)[C@@H]2C1(C)C [PT010] | 10 to 100 µM | –
